Here are results for 20 compounds from ChEMBL document CHEMBL1127273, “Novel cholecystokinin receptor ligands: Oxopiperazines derived from Boc-CCK-4” (Bioorg Med Chem Lett, 1994).

Experiment [1] addresses T1, Cholecystokinin receptor type A (Mus musculus, UniProt O08786).
T1 sequence (O08786 whole entry): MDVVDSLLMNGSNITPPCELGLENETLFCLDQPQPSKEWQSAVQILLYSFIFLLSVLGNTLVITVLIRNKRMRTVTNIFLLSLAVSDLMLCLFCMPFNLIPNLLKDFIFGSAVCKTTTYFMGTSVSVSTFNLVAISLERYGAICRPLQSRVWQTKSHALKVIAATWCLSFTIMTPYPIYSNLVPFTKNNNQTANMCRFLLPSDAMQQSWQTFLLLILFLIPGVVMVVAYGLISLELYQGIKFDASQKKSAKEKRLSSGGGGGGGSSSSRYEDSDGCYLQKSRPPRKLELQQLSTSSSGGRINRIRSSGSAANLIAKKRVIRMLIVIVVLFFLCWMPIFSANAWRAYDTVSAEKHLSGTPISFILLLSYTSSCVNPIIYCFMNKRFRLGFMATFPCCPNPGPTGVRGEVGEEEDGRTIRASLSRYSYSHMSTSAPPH
Put plainly: Concentration producing half-maximal inhibition of specific binding of [125I]- CCK-8 to CCK receptors on mouse pancreatic membranes (CCK-A).

The target of experiment [2] is Cholecystokinin receptor (Mus musculus) (UniProt O08786+P56481). Nature of the experiment: Ratio of CCK-A receptor to CCK-B receptor was determined. It counts as protein assay.
The target in experiment [3] is T2, Gastrin/cholecystokinin type B receptor (Mus musculus, UniProt P56481).
T2 sequence (P56481 whole entry): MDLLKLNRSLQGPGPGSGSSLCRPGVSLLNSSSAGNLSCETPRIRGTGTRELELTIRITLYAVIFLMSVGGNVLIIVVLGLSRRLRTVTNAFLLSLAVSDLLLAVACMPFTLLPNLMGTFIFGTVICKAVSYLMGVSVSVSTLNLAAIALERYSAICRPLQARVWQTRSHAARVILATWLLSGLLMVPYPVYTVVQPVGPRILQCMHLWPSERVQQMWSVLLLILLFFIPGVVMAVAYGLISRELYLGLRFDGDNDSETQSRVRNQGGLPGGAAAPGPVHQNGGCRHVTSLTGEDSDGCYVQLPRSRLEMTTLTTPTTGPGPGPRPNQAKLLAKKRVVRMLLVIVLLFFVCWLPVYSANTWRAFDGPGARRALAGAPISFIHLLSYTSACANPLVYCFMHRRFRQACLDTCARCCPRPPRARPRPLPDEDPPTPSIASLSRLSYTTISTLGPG
Nature of the experiment: Concentration producing half-maximal inhibition of specific binding of [125I]- CCK-8 to CCK receptors mouse forebrain membranes (CCK-B). It counts as tissue-based, Brain.

Each structure is given as a SMILES string. Residues, ends and D or L forms follow the SMILES beside them. *: point of attachment. NHPhenethyl = c1ccc(CCN*)cc1; Boc = CC(C)(C)OC(=O)* Where only a bound is given, the exact number is not on record here.

Turning to `CC(C)C[C@H](NC(=O)CCc1c[nH]c2ccccc12)C(=O)N1C[C@H](Cc2ccccc2)NC(=O)[C@@H]1CC(=O)O`, the half-inhibitory concentration (IC50) (as a rule, the concentration that gives 50% inhibition) came to 56 µM in experiment [1] and 8.9 µM in experiment [3]. Also, the Ratio in experiment [2] turned out to be 6.3.

On to `CC(C)C[C@H](NC(=O)[C@H](Cc1c[nH]c2ccccc12)NC(=O)OC(C)(C)C)C(=O)N1C[C@@H](Cc2ccccc2)NC(=O)[C@H]1CC(=O)O`, for which the IC50 stood at 6.3 µM in experiment [1] and 70 µM in experiment [3]. Also, the Ratio in experiment [2] worked out at 0.09.

`CC(C)C[C@H](NC(=O)[C@H](Cc1c[nH]c2ccccc12)NC(=O)OC(C)(C)C)C(=O)N1CC(=O)N[C@@H](Cc2ccccc2)C1`: the IC50 was determined as 0.27 µM in experiment [1] and 37 µM in experiment [3]. Further, the Ratio in experiment [2] is 0.0073.

On to `CC(C)C[C@H](NC(=O)[C@H](Cc1c[nH]c2ccccc12)NC(=O)OC(C)(C)C)C(=O)N1CC(=O)N[C@H](Cc2ccccc2)C1`, for which the IC50 was found to be 0.046 µM in experiment [1] and 39 µM in experiment [3]. The Ratio in experiment [2] turned out to be 0.0012.

With `CC(C)C[C@H](NC(=O)[C@H](Cc1c[nH]c2ccccc12)NC(=O)OC(C)(C)C)C(=O)N1C[C@H](CCc2ccccc2)NC(=O)[C@@H]1CC(=O)O`, the IC50 was 0.63 µM in experiment [1] and 8.2 µM in experiment [3]. The Ratio in experiment [2] came to 0.077.

For the compound `CC(C)C[C@H](NC(=O)[C@H](Cc1c[nH]c2ccccc12)NC(=O)/C=C/c1ccccc1)C(=O)N1CC(=O)N[C@@H](Cc2ccccc2)C1`, the IC50 is 0.52 µM in experiment [1] and more than 100 µM in experiment [3].

`CC(C)C[C@H](NC(=O)[C@H](Cc1c[nH]c2ccccc12)NC(=O)OC(C)(C)C)C(=O)N[C@@H](CC(=O)O)C(=O)NCCc1ccccc1` (Boc-Trp-Leu-Asp-NHPhenethyl): the Ratio in experiment [2] was 10.

For `CC(C)C[C@H](NC(=O)[C@H](Cc1c[nH]c2ccccc12)NC(=O)OCc1ccccc1)C(=O)N1CC(=O)N[C@@H](Cc2ccccc2)C1`, the figures for the IC50 in experiment [1] and in experiment [3] were 0.064 µM and 18 µM, respectively. The Ratio in experiment [2] was determined as 0.0036.

Turning to `CC(C)C[C@H](NC(=O)[C@@H](N)Cc1c[nH]c2ccccc12)C(=O)N1C[C@H](Cc2ccccc2)NC(=O)[C@@H]1CC(=O)O`, the values for the half-inhibitory concentration (IC50) in experiment [1] and in experiment [3] were 51 µM and 15 µM, respectively. For the same compound, the Ratio in experiment [2] came out at 3.4.

Consider `CC(C)C[C@H](NC(=O)C(NC(=O)OC(C)(C)C)c1ccccc1)C(=O)N1CC(=O)N[C@@H](Cc2ccccc2)C1` (stereo not given in full), for which the figures for the IC50 in experiment [1] and in experiment [3] were 24 µM and 10 µM, respectively. In experiment [2], the Ratio turned out to be 2.4.

`CC(C)C[C@H](NC(=O)[C@H](Cc1c[nH]c2ccccc12)NC(=O)OC(C)(C)C)C(=O)N1C[C@H](c2ccccc2)NC(=O)[C@@H]1CC(=O)O`: the IC50 in experiment [1] and in experiment [3] was 9.4 µM in each case. The Ratio in experiment [2] is 1.

With `CC(C)C[C@H](NC(=O)[C@@H](Cc1c[nH]c2ccccc12)NC(=O)OC(C)(C)C)C(=O)N1CC(=O)N[C@@H](Cc2ccccc2)C1`, the IC50 in experiment [1] is 5.5 µM; in experiment [3], more than 100 µM.

For `CCCC[C@H](NC(=O)c1c[nH]c2ccccc12)C(=O)N1C[C@H](Cc2ccccc2)NC(=O)[C@@H]1CC(=O)O`, the IC50 was 1.4 µM in experiment [1] and more than 100 µM in experiment [3].

As to `CCOC(=O)N[C@@H](Cc1c[nH]c2ccccc12)C(=O)N[C@@H](CC(C)C)C(=O)N1CC(=O)N[C@@H](Cc2ccccc2)C1`, the IC50 in experiment [1] came out at 0.43 µM; in experiment [3], 38 µM. In experiment [2], the Ratio turned out to be 0.011.

Consider `CC(C)C[C@H](NC(=O)[C@H](Cc1c[nH]c2ccccc12)NC(=O)OCc1ccccc1)C(=O)N1CC(=O)N[C@H](Cc2ccccc2)C1`, for which the IC50 in experiment [1] stood at 0.014 µM; in experiment [3], 15 µM. In addition, the Ratio in experiment [2] was found to be 0.0009.

With `CC(C)C[C@H](NC(=O)[C@H](Cc1c[nH]c2ccccc12)NC(=O)OC(C)(C)C)C(=O)N1C[C@H](Cc2ccccc2)NC(=O)[C@H]1CC(=O)O` (mixture of isomers), the IC50 in experiment [1] came to 2.8 µM; in experiment [3], 7.4 µM. In experiment [2], the Ratio is 0.38.

For the compound `CCCC[C@H](NC(=O)Cc1c[nH]c2ccccc12)C(=O)N1C[C@H](Cc2ccccc2)NC(=O)[C@@H]1CC(=O)O`, the IC50 in experiment [1] amounted to 7.2 µM; in experiment [3], 1.2 µM. The Ratio in experiment [2] amounted to 6.

For the compound `CC(C)C[C@H](NC(=O)[C@H](Cc1c[nH]c2ccccc12)NC(=O)OC(C)(C)C)C(=O)N1C[C@@H](Cc2ccccc2)NC(=O)[C@@H]1CC(=O)O`, the IC50 in experiment [1] was determined as 3.6 µM; in experiment [3], 17 µM. Also, the Ratio in experiment [2] was determined as 0.21.

For the compound `CC(C)C[C@H](NC(=O)[C@H](Cc1c[nH]c2ccccc12)NC(=O)OC(C)(C)C)C(=O)N1C[C@H](Cc2ccccc2)NC(=O)[C@@H]1CC(=O)O`, the IC50 in experiment [1] worked out at 0.84 µM; in experiment [3] it was 61 µM. In addition, the Ratio in experiment [2] was determined as 0.014.

In the case of `CC(C)C[C@H](NC(=O)Cc1c[nH]c2ccccc12)C(=O)N1C[C@H](Cc2ccccc2)NC(=O)[C@@H]1CC(=O)O`, the IC50 was 13 µM in experiment [1] and 2.5 µM in experiment [3]. In addition, in experiment [2], the Ratio was 5.2.
